The source of these data is ChEMBL document CHEMBL4825658, “Discovery of 3-(4-(2-((1H-Indol-5-yl)amino)-5-fluoropyrimidin-4-yl)-1H-pyrazol-1-yl)propanenitrile Derivatives as Selective TYK2 Inhibitors for the Treatment of Inflammatory Bowel Disease” (J Med Chem, 2021).

Data set [1] concerns the target Tyrosine-protein kinase JAK1 (Homo sapiens, UniProt P23458). Briefly: Inhibition of human JAK1 (866 to end residues) using GEEPLYWSFPAKKK as substrate after 40 mins in presence of [gamma33P]ATP by scintillation counting based radiometry assay.
For data set [2], the target named is Non-receptor tyrosine-protein kinase TYK2 (Homo sapiens, UniProt P29597). Kind of data set: Inhibition of recombinant human TYK2 (875 to end residues) using GGMEDIYFEFMGG as substrate incubated for 40 mins in presence of [gamma33P]ATP by scintillation counting based radiometry assay.
Data set [3] deals with T1, Tyrosine-protein kinase JAK3 (Homo sapiens, UniProt P52333).
T1 sequence (P52333 whole entry): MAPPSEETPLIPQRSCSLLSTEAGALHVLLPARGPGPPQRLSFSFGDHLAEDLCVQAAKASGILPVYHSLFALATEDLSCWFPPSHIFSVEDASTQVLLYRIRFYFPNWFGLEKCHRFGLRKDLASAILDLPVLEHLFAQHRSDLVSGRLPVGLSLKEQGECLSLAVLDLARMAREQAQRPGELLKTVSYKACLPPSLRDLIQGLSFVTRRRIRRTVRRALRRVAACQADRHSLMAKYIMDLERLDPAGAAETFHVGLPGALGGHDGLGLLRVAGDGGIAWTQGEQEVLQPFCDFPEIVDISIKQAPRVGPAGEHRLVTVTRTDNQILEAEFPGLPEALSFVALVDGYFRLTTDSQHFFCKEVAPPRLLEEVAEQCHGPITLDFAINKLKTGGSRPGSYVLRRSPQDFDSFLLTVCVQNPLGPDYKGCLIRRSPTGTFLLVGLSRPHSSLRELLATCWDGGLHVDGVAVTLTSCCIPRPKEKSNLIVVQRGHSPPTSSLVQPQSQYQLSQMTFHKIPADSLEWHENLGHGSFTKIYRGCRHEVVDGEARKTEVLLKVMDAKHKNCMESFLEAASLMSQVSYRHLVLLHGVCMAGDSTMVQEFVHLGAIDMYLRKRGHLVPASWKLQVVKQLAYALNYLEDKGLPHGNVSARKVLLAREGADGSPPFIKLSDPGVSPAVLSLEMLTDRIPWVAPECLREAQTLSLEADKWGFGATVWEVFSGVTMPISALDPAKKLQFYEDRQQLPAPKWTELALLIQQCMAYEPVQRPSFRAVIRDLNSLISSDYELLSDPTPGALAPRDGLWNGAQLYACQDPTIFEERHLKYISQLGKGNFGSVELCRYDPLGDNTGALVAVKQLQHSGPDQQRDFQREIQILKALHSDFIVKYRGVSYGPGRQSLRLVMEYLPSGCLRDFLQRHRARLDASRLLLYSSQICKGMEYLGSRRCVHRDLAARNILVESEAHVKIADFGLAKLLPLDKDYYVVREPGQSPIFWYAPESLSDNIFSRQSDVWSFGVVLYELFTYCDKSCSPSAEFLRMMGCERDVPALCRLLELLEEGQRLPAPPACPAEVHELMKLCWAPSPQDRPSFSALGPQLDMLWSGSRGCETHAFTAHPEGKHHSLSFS
Briefly: Inhibition of recombinant human JAK3 (781 to end residues) using GGEEEEYFELVKKKK as substrate measured after 40 mins in presence of [gamma33P]ATP by scintillation counting based radiometry assay.

The target of data set [4] is Tyrosine-protein kinase JAK2 (Homo sapiens, UniProt O60674). Kind of data set: Inhibition of recombinant human JAK2 (808 to end residues) KTFCGTPEYLAPE as substrate measured after 40 mins in presence of [gamm33P]ATP by scintillation counting based radiometry assay.
Data set [5] can be described thus: Metabolic stability in cryopreserved human liver microsomes assessed as half life. Format: ADME, Microsome. A general note: Liver microsomes are vesicles of endoplasmic reticulum, rich in cytochrome P450 enzymes.
Data set [6] is filed under the species Homo sapiens. Briefly: Selectivity index, ratio of IC50 for inhibition of recombinant human JAK2 (808 to end residues) to IC50 for inhibition of recombinant human TYK2 (875 to end residues).
Data set [7] addresses Serine/threonine-protein kinase 16 (Homo sapiens) (UniProt O75716). Briefly: Inhibition of human STK16 at 0.1 uM relative to control.
For data set [8], the system named is Mus musculus. Briefly: Anti-ulcerative colitis activity in DSS-induced C57BL/6 mouse ulcerative colitis model assessed as reduction in fecal occult blood at 10 to 20 mg/kg, po administrated for 6 days measured on day 9. Format: functional, organism-based. The following applies: dose 10-20 mg/kg, time 6.0 day.
The target of data set [9] is Receptor-type tyrosine-protein kinase FLT3 (Homo sapiens) (UniProt P36888). Kind of data set: Inhibition of human FLT3 at 0.1 uM relative to control.
Data set [10] concerns Mus musculus. Kind of data set: Anti-inflammatory activity in DSS-induced C57BL/6 mouse ulcerative colitis model assessed as suppression of TNFalpha content in serum at 20 mg/kg, po administrated for 6 days measured on day 9. It is filed as functional, organism-based. The following applies: time 6.0 day.
Data set [11] in a line: MRT (0 to t) in Sprague-Dawley rat at 20 mg/kg, po by LC-MS/MS analysis. Conditions: in vivo. Format: ADME, organism-based.
The nature of data set [12]: Cmax in Sprague-Dawley rat at 5 mg/kg, iv by LC-MS/MS analysis. Format: ADME, organism-based. Also on record: route intravenous, dose 5 mg/kg. The following applies: in vivo.
In data set [13] the test system is Mus musculus. Kind of data set: Anti-inflammatory activity in DSS-induced C57BL/6 mouse ulcerative colitis model assessed as increase in IL-10 content in serum at 20 mg/kg, po administrated for 6 days measured on day 9. Conditions: time 6.0 day. It is filed as functional, organism-based.
Data set [14] can be described thus: Half life in Sprague-Dawley rat at 20 mg/kg, po by LC-MS/MS analysis. It is filed as ADME, organism-based. The following applies: in vivo.
Data set [15] has as its system Mus musculus. Briefly: Anti-ulcerative colitis activity in DSS-induced C57BL/6 mouse ulcerative colitis model assessed as recovery of body weight at 10 to 20 mg/kg, po administrated for 6 days measured on day 9. It is filed as functional, organism-based. Conditions: dose 10-20 mg/kg, time 6.0 day.
In data set [16] the test system is Mus musculus. Briefly: Anti- inflammatory activity in DSS-induced C57BL/6 mouse ulcerative colitis model assessed as suppression of IL-6 content in serum at 20 mg/kg, po administrated for 6 days measured on day 9. Format: functional, organism-based. The following applies: time 6.0 day.
For data set [17], the system named is Mus musculus. Briefly: Anti-inflammatory activity in DSS-induced C57BL/6 mouse ulcerative colitis model assessed as increase in IL-10 content in colon tissue at 20 mg/kg, po administrated for 6 days measured on day 9. Format: functional, organism-based. The following applies: time 6.0 day.
The nature of data set [18]: AUC (0 to t) in Sprague-Dawley rat at 5 mg/kg, iv by LC-MS/MS analysis. It is filed as ADME, organism-based. The arrangement: dose 5 mg/kg. The following applies: in vivo.
Data set [19] in a line: Cmax in Sprague-Dawley rat at 20 mg/kg, po by LC-MS/MS analysis. It is filed as ADME, organism-based. The arrangement: route oral, dose 20 mg/kg. The following applies: in vivo.
Data set [20] can be described thus: Tmax in Sprague-Dawley rat at 20 mg/kg, po by LC-MS/MS analysis. Format: ADME, organism-based. The following applies: in vivo.
The subject of data set [21] is Mus musculus. Briefly: Anti-ulcerative colitis activity in DSS-induced C57BL/6 mouse ulcerative colitis model assessed as increase in colon length at 10 to 20 mg/kg, po administrated for 6 days measured on day 9. Format: functional, organism-based. Conditions: dose 10-20 mg/kg, time 6.0 day.
Data set [22] deals with Mus musculus. Briefly: Anti-ulcerative colitis activity in DSS-induced C57BL/6 mouse ulcerative colitis model assessed as recovery of colon epithelial and mucosal structure at 20 mg/kg, po administrated for 6 days measured on day 9 by microscopy based histopathological analysis. Format: functional, organism-based. Conditions: time 6.0 day.
In data set [23] the test system is Mus musculus. Kind of data set: Anti-ulcerative colitis activity in DSS-induced C57BL/6 mouse ulcerative colitis model assessed as reduction in watery stool at 10 to 20 mg/kg, po administrated for 6 days measured on day 9. Format: functional, organism-based. The following applies: dose 10-20 mg/kg, time 6.0 day.
Data set [24] can be described thus: MRT (0 to t) in Sprague-Dawley rat at 5 mg/kg, iv by LC-MS/MS analysis. Format: ADME, organism-based. Conditions: in vivo.
Data set [25] relates to Mus musculus. Kind of data set: Anti-inflammatory activity in DSS-induced C57BL/6 mouse ulcerative colitis model assessed as suppression of IL-6 content in colon tissue at 20 mg/kg, po administrated for 6 days measured on day 9. Conditions: time 6.0 day. It is filed as functional, organism-based.
The nature of data set [26]: Oral bioavailability in Sprague-Dawley rat at 20 mg/kg by LC-MS/MS analysis. Format: ADME, organism-based. The following applies: in vivo.
In data set [27] the test system is Mus musculus. Briefly: Anti-ulcerative colitis activity in DSS-induced C57BL/6 mouse ulcerative colitis model assessed as recovery of colon crypts at 20 mg/kg, po administrated for 6 days measured on day 9 by microscopy based histopathological analysis. It is filed as functional, organism-based. The following applies: time 6.0 day.
Data set [28] in a line: Clearance in Sprague-Dawley rat at 5 mg/kg, iv by LC-MS/MS analysis. Conditions: in vivo. Format: ADME, organism-based.
Data set [29] deals with Mus musculus. Briefly: Anti-inflammatory activity in DSS-induced C57BL/6 mouse ulcerative colitis model assessed as suppression of TNFalpha content in colon tissue at 20 mg/kg, po administrated for 6 days measured on day 9. Format: functional, organism-based. Conditions: time 6.0 day.
Data set [30] is described as follows: Half life in Sprague-Dawley rat at 5 mg/kg, iv by LC-MS/MS analysis. The following applies: in vivo. It is filed as ADME, organism-based.
Data set [31] can be described thus: Volume of distribution at steady state in Sprague-Dawley rat at 5 mg/kg, iv by LC-MS/MS analysis. It is filed as ADME, organism-based. Conditions: in vivo.
A short description of data set [32]: AUC (0 to t) in Sprague-Dawley rat at 20 mg/kg, po by LC-MS/MS analysis. Format: ADME, organism-based. Also on record: dose 20 mg/kg. The following applies: in vivo.

The structures appear in SMILES notation. Active and inactive are the calls of the source. The rule behind the calls is not given here.

Tyrosine-protein kinase JAK2, sequence (O60674 whole entry): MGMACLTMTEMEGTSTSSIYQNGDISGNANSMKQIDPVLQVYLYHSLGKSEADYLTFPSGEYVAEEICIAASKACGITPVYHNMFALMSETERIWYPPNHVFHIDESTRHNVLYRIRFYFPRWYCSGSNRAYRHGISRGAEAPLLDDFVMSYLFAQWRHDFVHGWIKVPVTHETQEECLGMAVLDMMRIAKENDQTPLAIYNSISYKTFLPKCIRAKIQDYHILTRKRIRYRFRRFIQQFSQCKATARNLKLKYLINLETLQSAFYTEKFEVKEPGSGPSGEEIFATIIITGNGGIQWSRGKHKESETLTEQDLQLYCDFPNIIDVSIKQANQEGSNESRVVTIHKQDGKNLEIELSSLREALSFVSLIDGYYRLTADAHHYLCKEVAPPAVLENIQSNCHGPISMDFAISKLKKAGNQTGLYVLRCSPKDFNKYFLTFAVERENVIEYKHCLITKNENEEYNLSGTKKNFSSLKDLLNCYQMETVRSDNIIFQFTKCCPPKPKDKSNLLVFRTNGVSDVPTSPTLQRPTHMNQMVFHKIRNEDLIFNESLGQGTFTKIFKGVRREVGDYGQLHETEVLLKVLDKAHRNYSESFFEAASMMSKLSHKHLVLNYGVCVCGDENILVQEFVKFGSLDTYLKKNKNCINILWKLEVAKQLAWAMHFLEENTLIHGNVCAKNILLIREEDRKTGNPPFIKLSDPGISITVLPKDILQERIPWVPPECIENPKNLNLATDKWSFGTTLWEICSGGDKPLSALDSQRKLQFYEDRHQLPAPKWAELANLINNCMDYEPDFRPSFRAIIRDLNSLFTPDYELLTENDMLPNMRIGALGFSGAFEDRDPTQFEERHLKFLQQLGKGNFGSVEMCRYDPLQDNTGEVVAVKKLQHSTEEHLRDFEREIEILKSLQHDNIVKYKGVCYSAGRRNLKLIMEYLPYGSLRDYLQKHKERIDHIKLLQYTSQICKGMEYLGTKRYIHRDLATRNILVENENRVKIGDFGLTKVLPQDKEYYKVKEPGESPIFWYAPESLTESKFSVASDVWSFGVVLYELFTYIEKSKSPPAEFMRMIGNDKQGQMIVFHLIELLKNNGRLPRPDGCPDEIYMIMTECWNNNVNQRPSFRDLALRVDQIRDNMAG
Tyrosine-protein kinase JAK1, sequence (P23458 whole entry): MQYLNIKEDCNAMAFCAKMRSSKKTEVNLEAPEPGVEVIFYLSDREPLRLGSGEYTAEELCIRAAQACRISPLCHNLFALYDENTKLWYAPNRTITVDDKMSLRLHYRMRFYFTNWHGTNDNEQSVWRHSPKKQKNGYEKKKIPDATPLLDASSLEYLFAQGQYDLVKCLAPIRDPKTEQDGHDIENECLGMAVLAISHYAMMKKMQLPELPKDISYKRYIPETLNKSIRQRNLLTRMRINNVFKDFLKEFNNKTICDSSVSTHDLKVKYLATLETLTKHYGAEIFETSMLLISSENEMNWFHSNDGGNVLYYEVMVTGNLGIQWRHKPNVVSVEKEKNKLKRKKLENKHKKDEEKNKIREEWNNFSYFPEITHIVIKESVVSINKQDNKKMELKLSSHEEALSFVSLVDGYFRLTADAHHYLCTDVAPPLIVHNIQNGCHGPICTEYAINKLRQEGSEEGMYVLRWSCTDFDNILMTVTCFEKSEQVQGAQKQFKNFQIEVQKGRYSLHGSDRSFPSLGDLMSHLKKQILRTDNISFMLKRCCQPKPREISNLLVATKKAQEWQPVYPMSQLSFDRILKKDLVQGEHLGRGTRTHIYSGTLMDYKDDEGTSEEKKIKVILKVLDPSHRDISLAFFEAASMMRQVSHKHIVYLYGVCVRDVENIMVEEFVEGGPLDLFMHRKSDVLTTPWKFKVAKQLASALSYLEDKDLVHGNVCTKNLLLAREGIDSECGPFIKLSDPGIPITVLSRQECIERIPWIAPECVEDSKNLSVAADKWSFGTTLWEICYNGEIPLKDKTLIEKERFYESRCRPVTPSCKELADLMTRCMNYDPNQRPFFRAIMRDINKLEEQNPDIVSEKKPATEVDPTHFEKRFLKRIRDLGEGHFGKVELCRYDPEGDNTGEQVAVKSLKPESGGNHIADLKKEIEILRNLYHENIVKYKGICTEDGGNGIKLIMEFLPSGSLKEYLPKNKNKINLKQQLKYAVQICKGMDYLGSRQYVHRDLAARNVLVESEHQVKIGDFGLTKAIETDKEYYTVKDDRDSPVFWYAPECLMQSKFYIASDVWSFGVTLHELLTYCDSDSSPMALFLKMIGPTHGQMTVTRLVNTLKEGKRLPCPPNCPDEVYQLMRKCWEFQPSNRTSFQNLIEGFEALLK
Non-receptor tyrosine-protein kinase TYK2, sequence (P29597 whole entry): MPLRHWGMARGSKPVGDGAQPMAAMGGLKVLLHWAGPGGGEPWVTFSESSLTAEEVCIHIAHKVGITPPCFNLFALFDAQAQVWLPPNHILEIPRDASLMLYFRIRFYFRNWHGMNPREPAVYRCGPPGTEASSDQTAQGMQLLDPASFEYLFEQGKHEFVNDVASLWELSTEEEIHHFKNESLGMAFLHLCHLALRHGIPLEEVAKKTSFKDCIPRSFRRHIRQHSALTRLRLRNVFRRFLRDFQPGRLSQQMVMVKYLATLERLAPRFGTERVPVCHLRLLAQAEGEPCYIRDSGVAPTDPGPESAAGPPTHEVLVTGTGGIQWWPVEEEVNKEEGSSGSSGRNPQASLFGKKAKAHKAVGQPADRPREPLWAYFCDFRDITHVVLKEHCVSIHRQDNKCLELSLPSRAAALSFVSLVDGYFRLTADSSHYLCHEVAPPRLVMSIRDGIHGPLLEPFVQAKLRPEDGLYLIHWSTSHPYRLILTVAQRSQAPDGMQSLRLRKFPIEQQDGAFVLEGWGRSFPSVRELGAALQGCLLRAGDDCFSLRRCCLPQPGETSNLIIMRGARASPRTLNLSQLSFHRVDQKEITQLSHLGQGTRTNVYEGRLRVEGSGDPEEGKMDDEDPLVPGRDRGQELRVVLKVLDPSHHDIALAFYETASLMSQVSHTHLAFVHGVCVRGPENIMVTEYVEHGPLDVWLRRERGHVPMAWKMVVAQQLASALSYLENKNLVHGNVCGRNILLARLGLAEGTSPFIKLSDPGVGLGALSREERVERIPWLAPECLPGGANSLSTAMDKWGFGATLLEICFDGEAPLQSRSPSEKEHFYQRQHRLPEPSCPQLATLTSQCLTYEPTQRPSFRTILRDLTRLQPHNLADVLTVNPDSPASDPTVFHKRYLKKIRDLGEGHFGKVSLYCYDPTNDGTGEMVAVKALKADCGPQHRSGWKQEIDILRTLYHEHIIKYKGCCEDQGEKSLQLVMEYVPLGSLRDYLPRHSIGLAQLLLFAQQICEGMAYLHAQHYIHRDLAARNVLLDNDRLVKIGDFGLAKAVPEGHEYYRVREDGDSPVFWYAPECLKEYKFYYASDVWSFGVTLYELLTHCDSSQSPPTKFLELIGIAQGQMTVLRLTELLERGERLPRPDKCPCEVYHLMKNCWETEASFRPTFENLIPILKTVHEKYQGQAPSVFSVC
Serine/threonine-protein kinase 16 (Homo sapiens), sequence (O75716 whole entry): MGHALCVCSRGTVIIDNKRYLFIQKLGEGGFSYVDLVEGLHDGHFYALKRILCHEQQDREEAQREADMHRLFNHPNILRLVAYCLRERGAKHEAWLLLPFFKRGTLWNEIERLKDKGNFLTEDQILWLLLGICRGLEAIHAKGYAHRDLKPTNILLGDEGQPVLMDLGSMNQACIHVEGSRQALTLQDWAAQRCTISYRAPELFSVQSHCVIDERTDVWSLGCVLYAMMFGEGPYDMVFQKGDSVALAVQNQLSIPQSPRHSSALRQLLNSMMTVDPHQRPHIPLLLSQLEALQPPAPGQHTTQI
Receptor-type tyrosine-protein kinase FLT3 (Homo sapiens), sequence (P36888 whole entry): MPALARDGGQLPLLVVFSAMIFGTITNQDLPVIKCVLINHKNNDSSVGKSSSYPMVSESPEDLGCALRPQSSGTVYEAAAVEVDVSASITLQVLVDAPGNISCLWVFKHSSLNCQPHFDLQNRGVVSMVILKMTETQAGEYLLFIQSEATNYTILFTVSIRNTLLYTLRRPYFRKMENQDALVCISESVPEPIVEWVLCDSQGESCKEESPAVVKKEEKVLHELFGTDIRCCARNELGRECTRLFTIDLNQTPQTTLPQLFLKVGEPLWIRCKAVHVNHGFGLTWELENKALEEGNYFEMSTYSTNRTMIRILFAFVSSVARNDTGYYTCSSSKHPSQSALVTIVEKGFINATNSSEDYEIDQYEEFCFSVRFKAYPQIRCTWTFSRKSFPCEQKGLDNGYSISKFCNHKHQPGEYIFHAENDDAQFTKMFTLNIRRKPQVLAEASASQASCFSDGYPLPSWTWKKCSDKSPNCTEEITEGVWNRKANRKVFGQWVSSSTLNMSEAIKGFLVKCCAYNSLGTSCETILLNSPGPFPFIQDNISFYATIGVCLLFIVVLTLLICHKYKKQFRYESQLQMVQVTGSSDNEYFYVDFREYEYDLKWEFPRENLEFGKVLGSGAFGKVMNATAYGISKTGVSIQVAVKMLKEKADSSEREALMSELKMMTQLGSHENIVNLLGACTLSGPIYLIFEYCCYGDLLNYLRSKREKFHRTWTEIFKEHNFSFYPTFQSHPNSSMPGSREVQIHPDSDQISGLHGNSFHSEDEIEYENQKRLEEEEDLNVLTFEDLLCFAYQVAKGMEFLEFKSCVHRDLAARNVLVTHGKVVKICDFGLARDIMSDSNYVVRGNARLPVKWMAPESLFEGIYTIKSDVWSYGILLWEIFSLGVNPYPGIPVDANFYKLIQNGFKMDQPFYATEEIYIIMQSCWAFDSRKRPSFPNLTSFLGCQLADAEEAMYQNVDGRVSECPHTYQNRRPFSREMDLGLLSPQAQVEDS

What is called IC50 is the concentration needed to halve the response being measured. In general, half-life refers to the time in which the quantity being followed falls by half. On to `Cc1cnc(Nc2ccc3c(c2)CCN3S(=O)(=O)c2ccc(C(F)(F)F)cc2)nc1-c1cnn(C(C)C)c1`, for which the IC50 is 341 nM in [1], 16 nM in data set [2], greater than 1000 nM in data set [3] and 82 nM in [4]. The half-life in [5] was found to be 0.0657 h. The Selectivity Index in [6] worked out at 5.12.
What is called inhibition is the relative decrease from the control value, in per cent. In general, MRT last refers to the average time that molecules of a dose stay in the body. As usually defined, the Cmax is the maximum level reached in the sampled fluid or tissue. In general, AUC(0-t) refers to exposure summed from dosing to a finite time, without extrapolation to infinity. Low values mean less exposure, high ones more exposure. A word on the Tmax: it is the time from dosing to the highest level. For orientation: bioavailability means dose-corrected exposure relative to a reference, in per cent. A word on the clearance: it is the volume of plasma or blood freed of the substance per unit of time. The low end stands for a low capacity for elimination, the high end for a high capacity for elimination. As a reminder, the Vdss is the apparent volume that relates the amount in the body to the concentration in plasma or blood. Higher therefore signals wide distribution into tissue. In the case of `N#CCCn1cc(-c2nc(Nc3ccc4c(ccn4S(=O)(=O)C(F)(F)F)c3)ncc2F)cn1`, the inhibition result in data set [7] is “inactive”. The result in data set [8], in data set [10], in data set [13], in [15], in [16] and in data set [17] was Active. Moreover, the outcome in [21], in data set [22], in [23], in [25], in [27] and in [29] was Active. Besides, the inhibition in [9] was found to be 32%. In addition, the MRT last in [11] is 2.76 h. Besides, the Cmax in data set [12] was determined as 48.5 ng/mL; in [19], 8 ng/mL. Moreover, the half-life in [14] is 3.64 h; in data set [5], 2.03 h; in data set [30], 5.95 h. In addition, the figures for the AUC(0-t) in data set [18] and in data set [32] were 29 ng·h/mL and 13.9 ng·h/mL, respectively. In addition, the Tmax in data set [20] was 1 h. Also, the “MRT(t)” value in data set [24] stood at 4.98 h. This compound also showed a bioavailability in data set [26] of 12%. In data set [28], the clearance was 1.58 mL/min/kg. For the same compound, the Vdss in data set [31] is 0.985 L/kg.
`Cc1cnc(Nc2ccc3c(c2)CCN3S(=O)(=O)c2ccc(C(F)(F)F)cc2)nc1-c1cnn(C2CCC2)c1`: the IC50 is 333 nM in data set [1], 12 nM in data set [2], greater than 1000 nM in data set [3] and 162 nM in [4]. For the same compound, the half-life in [5] was found to be 0.324 h.
For `Cc1cnc(Nc2ccc3c(c2)CCN3S(=O)(=O)c2ccc(C(F)(F)F)cc2)nc1-c1cnn(C)c1`, the IC50 in data set [1] is greater than 1000 nM; in data set [2], 148 nM; in [3] it was greater than 1000 nM; in data set [4] it was greater than 1000 nM. Besides, in [5], the half-life is 0.122 h.
